{"source": "patent US12569563B2", "about": "“Selective HDAC6 degraders and methods of use thereof” (DANA-FARBER CANCER INSTITUTE, INC., priority 2019, dated 2026)", "key": {"HDAC10": {"target": "T1, HDAC10 (Homo sapiens, UniProt Q969S8)", "T1 construct": "purchased Reaction Biology", "T1 sequence (Q969S8 1-669)": "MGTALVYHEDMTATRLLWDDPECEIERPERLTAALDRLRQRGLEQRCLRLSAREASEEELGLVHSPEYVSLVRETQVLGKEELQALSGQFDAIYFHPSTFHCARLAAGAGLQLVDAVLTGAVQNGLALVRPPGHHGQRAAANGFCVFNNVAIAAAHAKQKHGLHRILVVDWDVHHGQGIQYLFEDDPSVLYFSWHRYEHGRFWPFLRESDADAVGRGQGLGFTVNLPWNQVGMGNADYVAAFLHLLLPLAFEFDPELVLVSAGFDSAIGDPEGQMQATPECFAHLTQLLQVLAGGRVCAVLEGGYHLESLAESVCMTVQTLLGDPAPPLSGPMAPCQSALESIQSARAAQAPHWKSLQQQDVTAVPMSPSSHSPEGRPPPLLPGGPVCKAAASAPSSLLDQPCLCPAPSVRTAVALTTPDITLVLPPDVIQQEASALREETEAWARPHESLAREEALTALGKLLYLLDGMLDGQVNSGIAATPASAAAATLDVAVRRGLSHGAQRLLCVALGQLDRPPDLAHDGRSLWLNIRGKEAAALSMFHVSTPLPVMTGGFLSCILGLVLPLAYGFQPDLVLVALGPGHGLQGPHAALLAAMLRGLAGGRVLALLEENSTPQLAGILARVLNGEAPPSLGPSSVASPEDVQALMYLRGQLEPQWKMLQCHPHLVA", "assay": "HDAC assay from Reaction Biology, fluorogenic substrate", "assay_type": "biochemical", "settings": "10-dose response curve; read-out: Compound IC50 HDAC10", "protocol": "Compounds 1 and 3 were tested in a HDAC assay from Reaction Biology® against 10 different HDACs.\nBase Reaction buffer: 50 mM Tris-HCl, pH8.0, 137 mM NaCl, 2.7 mM KCl, and 1 mM MgCl2,\nAdd fresh: 1 mg/ml BSA, 1% DMSO\nFluorogenic HDAC General Substrate (HDAC1, HDAC2, HDAC3, HDAC6, HDAC10, and HDAC11): 50 μM, Arg-His-Lys-Lys(Ac)-AMC\n• (HDAC8 only substrate: 50 μM, Arg-His-Lys(Ac)-Lys(Ac))-AMC Class2A Substrate (HDAC4, HDAC5, HDAC7, and HDAC9): Boc-Lys(trifluoroacetyl)-AMC For SIRTs 1-3, general Class1 HDAC substrate and 500 μM NAD+ For SIRT5, Ac-Lys-succ and 500 μM NAD+ Reaction Procedure Deacetylation Step • 1. Delivered 2× enzyme in wells of reaction plate except in the control wells and added buffer to control wells. • 2. Delivered compounds in 100% DMSO into the enzyme mixture by Acoustic technology (Echo550; nanoliter range). Spin down and pre-incubation. • 3. Delivered 2× Substrate Mixture (Fluorogenic HDAC Substrate and co-factor if applicable) in all reaction wells to initiate the reaction. Spin and shake. • 4. Incubated for 30 min for Class 2A, 1 hr for HDAC1, 2, 3, and 6, and 2 hr for the rest of HDACs and SIRTs at 30° C. with seal. Development Step • 5. Added Developer with Trichostatin A (or Nicotinamide for SIRTs) to stop the reaction and to generate fluorescent color. • 6. The fluorescence that was generated was detected with excitation (Ex) at […] and emission (Em) at 460 nM by the EnVision Multilabel Plate Reader (PerkinElmer®, Santa Clara, CA, USA). • 7. IC50 values, presented in Table 1, were derived from a 10-dose response curve."}, "CRBN": {"target": "T2, CRBN (Homo sapiens, UniProt Q96SW2)", "T2 construct": "endogenous in cells; host or cells: Flp-In 293 cells stably expressing BRD4BD2-eGFP-P2A-mCherry", "assay": "Cellular CRBN engagement assay (competition with dBET6, BRD4BD2-eGFP reporter)", "assay_type": "cell-based", "settings": "Flip-In 293 BRD4BD2-eGFP cells, 100 nM dBET6, 5 h", "description": "The cellular CRBN engagement assay measures the cellular binding affinity which is the combination of the compound's cell permeability and their binding affinity to CRBN. This is done by measuring the ability of thalidomide-based degrader molecules to compete with pan-BET bromodomain degrader dBET6 (Nowak et al., Nat. Chem. Biol. 14:706-714 (2018)) for CRBN binding in cells. If no degrader compound is present in the cell, BRD4BRD2-eGFP is degraded by dBET6 via the proteasome system. […]\nCells were seeded at 30-50% confluency in either 24, 48 or 96 well plates (3524, 3548, 3596 respectively, Costar) a day before compound treatment. The inventive compounds were titrated in the presence of 100 nM dBET6 and then were incubated with cells for 5 h following trypsinization and resuspension in DMEM media, transferred into 96-well plates (353910, Falcon®) and analyzed by flow cytometer (Guava® easyCyte™ HT, Millipore®). Signal from at least 3000 events per well was acquired and the eGFP and mCherry florescence monitored. Data was analyzed using FlowJo® (FlowJo®, LCC). Forward and side scatter outliers, frequently associated with cell debris, were removed leaving >90% of total cells, followed by removal of eGFP and mCherry signal outliers, leaving 88-90% of total cells creating the set used for quantification. […]"}}}
{"smiles": "CN(C(=O)CCCCCCCNc1cccc2c1C(=O)N(C1CCC(=O)NC1=O)C2=O)c1ccc(NC(=O)CCCCCCC(=O)NO)cc1", "note": "(centres unmarked) [Compound 3, N^1-(4-(8-((2-(2,6-dioxopiperidin-3-yl)-1,3-dioxoisoindolin-4-yl)amino)-N-methyloctanamido)phenyl)-N^8-hydroxyoctanediamide]", "values": [{"measurement": "IC50", "setting": "HDAC10", "result": 6.58, "unit": "µM"}, {"measurement": "IC50", "setting": "CRBN", "result": 1.63, "unit": "µM"}]}
